Measurements: ChEMBL document CHEMBL5291721, “A preclinical secondary pharmacology resource illuminates target-adverse drug reaction associations of marketed drugs” (Nat Commun, 2023)

Columns and labels:
[1] = target: 5-hydroxytryptamine receptor 2A (Homo sapiens, UniProt P28223); assay type: functional, cell-based
[2] = target: D(1A) dopamine receptor (Homo sapiens, UniProt P21728); assay type: functional, cell-based
[3] = target: T1, 5-hydroxytryptamine receptor 1A (Homo sapiens, UniProt P08908); assay type: functional, cell-based
T1 sequence (P08908 whole entry): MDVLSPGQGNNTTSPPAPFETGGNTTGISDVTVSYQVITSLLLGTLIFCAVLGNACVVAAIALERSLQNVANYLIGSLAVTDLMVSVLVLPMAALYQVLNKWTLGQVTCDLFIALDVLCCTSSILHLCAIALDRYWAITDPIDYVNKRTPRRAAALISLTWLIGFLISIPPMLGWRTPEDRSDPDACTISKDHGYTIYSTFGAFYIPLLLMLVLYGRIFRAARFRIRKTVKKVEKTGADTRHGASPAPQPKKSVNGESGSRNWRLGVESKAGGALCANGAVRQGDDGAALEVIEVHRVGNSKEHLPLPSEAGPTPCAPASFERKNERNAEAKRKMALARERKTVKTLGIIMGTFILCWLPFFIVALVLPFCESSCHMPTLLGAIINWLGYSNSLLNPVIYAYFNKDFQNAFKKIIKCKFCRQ

[4] = target: 3',5'-cyclic-AMP phosphodiesterase 4D (Homo sapiens, UniProt Q08499); assay type: functional
Sequence of 3',5'-cyclic-AMP phosphodiesterase 4D (Q08499 whole entry): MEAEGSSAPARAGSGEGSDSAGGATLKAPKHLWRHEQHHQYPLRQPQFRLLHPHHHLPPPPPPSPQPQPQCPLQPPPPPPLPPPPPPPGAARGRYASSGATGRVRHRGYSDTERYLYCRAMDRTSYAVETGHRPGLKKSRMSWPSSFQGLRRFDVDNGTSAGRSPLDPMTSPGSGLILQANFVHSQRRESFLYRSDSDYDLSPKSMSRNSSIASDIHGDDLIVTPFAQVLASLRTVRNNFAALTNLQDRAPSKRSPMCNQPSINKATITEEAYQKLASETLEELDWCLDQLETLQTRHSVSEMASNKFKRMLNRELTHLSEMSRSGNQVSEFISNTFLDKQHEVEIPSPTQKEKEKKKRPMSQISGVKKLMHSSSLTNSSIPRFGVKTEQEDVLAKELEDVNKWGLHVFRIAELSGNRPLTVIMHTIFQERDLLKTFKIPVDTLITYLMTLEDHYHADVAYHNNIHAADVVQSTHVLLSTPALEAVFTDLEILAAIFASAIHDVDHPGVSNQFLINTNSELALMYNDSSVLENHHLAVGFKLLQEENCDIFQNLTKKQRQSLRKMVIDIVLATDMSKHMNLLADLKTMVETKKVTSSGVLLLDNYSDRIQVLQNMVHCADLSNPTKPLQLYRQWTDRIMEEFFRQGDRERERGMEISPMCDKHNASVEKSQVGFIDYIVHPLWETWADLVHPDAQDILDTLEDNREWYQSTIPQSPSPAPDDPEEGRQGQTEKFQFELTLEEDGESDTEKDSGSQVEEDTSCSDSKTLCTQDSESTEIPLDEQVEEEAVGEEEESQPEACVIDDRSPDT

[5] = target: Adenosine receptor A2a (Homo sapiens, UniProt P29274)
Sequence of Adenosine receptor A2a (P29274 whole entry): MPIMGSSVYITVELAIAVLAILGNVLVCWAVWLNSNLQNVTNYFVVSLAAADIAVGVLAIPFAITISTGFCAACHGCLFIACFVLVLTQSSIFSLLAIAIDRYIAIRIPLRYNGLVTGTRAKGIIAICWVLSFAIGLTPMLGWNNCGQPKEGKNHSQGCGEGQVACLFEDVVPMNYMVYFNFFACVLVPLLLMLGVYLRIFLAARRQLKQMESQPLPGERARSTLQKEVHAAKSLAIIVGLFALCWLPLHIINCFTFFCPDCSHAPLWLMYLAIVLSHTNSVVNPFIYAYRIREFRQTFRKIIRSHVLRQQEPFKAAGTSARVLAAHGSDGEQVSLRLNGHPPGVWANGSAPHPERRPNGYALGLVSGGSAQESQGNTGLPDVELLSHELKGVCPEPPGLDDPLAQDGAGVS

[6] = target: T2, Endothelin receptor type B (Homo sapiens, UniProt P24530)
T2 sequence (P24530 whole entry): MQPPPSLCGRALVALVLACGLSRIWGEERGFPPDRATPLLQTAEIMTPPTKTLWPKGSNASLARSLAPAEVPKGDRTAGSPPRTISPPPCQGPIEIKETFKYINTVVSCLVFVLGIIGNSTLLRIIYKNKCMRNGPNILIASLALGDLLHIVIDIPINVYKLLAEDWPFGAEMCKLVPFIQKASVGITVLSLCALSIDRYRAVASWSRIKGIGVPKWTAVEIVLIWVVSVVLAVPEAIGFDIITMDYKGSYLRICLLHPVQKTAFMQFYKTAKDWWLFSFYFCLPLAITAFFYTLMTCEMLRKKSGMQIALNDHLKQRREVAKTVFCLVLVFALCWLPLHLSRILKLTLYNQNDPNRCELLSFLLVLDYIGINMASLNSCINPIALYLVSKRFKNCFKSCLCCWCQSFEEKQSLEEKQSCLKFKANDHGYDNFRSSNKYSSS

[7] = target: T3, Estrogen receptor (Homo sapiens, UniProt P03372)
T3 sequence (P03372 whole entry): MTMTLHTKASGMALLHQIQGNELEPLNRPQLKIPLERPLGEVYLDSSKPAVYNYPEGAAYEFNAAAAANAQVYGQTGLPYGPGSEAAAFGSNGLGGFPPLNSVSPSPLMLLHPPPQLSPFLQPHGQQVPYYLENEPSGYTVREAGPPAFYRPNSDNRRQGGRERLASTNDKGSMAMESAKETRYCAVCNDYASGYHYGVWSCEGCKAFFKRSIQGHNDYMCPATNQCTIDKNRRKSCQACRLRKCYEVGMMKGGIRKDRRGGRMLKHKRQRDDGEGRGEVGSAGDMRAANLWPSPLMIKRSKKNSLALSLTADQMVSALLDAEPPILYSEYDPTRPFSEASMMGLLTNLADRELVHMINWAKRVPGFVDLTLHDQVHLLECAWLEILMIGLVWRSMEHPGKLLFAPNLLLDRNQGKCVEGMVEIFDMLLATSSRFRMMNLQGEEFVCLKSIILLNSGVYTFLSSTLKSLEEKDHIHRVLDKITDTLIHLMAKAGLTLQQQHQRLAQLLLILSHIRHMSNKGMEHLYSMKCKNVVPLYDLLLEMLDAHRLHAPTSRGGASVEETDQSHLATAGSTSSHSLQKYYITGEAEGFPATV

[8] = target: Histamine H3 receptor (Homo sapiens, UniProt Q9Y5N1)
Sequence of Histamine H3 receptor (Q9Y5N1 whole entry): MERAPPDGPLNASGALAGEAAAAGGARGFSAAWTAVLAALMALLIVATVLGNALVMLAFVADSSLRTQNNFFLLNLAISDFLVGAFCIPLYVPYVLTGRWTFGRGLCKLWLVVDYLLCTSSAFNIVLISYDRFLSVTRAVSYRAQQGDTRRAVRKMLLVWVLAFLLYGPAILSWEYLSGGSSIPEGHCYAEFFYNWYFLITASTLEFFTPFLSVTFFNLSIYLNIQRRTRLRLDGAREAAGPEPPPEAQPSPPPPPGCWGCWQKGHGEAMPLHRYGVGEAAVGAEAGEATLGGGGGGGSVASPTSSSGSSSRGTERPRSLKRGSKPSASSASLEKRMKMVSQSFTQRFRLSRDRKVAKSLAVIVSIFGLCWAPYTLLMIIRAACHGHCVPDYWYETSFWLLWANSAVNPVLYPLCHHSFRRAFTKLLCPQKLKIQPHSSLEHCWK

[9] = target: 5-hydroxytryptamine receptor 2B (Homo sapiens, UniProt P41595); assay type: functional, cell-based
Sequence of 5-hydroxytryptamine receptor 2B (P41595 whole entry): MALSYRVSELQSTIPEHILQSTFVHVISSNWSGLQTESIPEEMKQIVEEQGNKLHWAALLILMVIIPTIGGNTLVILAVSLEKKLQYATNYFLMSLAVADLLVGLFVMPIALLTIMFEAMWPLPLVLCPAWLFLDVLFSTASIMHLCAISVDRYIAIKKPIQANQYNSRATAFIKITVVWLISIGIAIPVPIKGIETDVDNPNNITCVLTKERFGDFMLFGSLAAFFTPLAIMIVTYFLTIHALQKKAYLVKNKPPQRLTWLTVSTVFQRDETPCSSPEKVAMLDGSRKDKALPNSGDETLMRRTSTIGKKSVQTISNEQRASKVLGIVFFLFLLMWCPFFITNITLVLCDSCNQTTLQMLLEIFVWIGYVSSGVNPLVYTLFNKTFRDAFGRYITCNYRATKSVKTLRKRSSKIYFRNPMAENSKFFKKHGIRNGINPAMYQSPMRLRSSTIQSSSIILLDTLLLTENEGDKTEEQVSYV

[10] = target: Beta-2 adrenergic receptor (Homo sapiens, UniProt P07550); assay type: functional, cell-based
Sequence of Beta-2 adrenergic receptor (P07550 whole entry): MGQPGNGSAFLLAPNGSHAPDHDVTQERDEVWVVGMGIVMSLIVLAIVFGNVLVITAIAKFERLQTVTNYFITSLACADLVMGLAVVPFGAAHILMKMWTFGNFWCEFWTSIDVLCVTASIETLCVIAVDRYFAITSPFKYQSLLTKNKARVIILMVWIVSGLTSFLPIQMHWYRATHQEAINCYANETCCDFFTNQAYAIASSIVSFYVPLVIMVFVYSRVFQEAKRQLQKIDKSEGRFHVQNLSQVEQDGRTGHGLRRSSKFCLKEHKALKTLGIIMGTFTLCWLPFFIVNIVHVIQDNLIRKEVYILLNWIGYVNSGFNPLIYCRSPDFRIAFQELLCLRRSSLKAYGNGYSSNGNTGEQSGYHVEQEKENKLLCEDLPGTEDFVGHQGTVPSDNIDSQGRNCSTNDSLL

[11] = target: T4, Gastrin/cholecystokinin type B receptor (Homo sapiens, UniProt P32239)
T4 sequence (P32239 whole entry): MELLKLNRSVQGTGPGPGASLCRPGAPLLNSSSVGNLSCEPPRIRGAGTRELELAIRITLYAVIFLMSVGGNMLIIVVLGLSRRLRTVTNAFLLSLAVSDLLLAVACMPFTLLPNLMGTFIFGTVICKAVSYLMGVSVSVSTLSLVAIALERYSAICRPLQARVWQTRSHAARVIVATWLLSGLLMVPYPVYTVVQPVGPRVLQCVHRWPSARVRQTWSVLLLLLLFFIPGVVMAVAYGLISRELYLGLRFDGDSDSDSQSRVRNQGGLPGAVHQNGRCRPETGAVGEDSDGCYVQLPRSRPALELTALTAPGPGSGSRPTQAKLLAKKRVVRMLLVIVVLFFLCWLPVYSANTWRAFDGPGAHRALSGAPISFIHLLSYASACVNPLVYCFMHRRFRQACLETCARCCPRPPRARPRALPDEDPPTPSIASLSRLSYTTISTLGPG

[12] = target: T5, Adenosine receptor A1 (Homo sapiens, UniProt P30542)
T5 sequence (P30542 whole entry): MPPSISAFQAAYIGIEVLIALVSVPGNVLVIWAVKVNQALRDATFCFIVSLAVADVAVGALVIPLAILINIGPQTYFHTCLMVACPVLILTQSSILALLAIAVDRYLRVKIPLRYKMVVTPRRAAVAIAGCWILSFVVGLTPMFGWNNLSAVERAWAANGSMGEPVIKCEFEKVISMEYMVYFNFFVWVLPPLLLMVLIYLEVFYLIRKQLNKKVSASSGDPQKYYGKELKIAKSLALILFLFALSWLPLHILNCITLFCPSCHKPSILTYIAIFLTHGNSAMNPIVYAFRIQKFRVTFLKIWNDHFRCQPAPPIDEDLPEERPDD

[13] = target: Melanocortin receptor 3 (Homo sapiens, UniProt P41968)
Sequence of Melanocortin receptor 3 (P41968 whole entry): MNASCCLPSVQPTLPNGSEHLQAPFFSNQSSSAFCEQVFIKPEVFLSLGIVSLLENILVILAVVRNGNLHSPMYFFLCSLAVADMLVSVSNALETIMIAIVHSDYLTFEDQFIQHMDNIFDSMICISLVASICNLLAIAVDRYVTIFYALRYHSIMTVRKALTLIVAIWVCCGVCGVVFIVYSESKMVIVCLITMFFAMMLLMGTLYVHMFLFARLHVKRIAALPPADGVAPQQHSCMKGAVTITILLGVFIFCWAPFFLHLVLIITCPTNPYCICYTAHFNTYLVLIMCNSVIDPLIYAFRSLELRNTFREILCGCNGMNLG

[14] = target: Cannabinoid receptor 1 (Homo sapiens, UniProt P21554)
Sequence of Cannabinoid receptor 1 (P21554 whole entry): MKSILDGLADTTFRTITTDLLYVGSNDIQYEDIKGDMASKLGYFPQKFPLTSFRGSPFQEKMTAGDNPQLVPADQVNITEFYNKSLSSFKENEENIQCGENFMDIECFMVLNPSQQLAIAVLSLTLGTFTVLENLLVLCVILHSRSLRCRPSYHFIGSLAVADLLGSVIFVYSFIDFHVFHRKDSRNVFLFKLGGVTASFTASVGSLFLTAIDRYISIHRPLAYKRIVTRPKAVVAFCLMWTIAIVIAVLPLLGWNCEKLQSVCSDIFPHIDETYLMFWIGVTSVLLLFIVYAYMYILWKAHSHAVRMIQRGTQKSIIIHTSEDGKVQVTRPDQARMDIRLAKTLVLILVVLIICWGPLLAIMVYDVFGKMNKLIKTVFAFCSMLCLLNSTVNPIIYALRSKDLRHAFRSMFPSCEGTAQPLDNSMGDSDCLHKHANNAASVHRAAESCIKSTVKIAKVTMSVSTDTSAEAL

[15] = target: Mu-type opioid receptor (Homo sapiens, UniProt P35372); experiment: biochemical; assay type: functional
Sequence of Mu-type opioid receptor (P35372 whole entry): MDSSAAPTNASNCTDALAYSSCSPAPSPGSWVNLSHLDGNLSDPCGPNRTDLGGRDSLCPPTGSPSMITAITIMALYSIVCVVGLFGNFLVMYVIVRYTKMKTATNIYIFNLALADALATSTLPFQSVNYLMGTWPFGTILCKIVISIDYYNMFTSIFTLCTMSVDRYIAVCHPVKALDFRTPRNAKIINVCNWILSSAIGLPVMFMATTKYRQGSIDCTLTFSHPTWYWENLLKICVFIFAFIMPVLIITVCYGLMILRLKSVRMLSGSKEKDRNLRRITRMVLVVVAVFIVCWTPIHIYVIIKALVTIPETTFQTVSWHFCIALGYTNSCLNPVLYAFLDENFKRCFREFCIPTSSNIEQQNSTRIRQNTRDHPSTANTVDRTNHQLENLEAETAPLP
Further: assay procedure not described here.

Sequence of 5-hydroxytryptamine receptor 2A (P28223 whole entry): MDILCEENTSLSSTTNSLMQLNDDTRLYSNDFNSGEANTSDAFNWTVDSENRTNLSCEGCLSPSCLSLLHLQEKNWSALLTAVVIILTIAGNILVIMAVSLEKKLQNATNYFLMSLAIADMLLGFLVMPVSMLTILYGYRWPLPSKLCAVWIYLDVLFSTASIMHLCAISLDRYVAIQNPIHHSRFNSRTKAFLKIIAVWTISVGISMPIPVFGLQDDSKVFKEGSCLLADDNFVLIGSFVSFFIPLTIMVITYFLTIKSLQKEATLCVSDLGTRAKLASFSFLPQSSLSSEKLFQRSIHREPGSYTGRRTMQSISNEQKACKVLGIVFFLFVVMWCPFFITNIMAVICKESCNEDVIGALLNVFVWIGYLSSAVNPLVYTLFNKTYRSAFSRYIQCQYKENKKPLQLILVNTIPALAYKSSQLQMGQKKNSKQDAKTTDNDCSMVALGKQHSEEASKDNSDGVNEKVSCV
Sequence of D(1A) dopamine receptor (P21728 whole entry): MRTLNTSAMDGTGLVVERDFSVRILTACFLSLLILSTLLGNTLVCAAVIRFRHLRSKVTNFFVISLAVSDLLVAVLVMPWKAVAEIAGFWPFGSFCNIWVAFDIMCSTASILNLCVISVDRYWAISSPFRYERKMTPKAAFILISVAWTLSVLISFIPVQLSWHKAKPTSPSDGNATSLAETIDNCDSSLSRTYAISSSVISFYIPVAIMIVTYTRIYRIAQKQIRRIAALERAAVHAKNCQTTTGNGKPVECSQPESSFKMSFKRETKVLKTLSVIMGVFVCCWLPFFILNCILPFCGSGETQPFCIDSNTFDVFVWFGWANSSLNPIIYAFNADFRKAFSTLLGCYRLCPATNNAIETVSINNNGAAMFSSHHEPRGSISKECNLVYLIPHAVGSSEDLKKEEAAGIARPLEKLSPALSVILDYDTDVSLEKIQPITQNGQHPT

| SMILES | AC50 [1] [µM] | AC50 [2] [µM] | AC50 [3] [µM] | AC50 [4] [µM] | AC50 [5] [µM] | AC50 [6] [µM] | AC50 [7] [µM] | AC50 [8] [µM] | AC50 [9] [µM] | AC50 [10] [µM] | AC50 [11] [µM] | AC50 [12] [µM] | AC50 [13] [µM] | AC50 [14] [µM] | AC50 [15] [µM] |
| --- | --- | --- | --- | --- | --- | --- | --- | --- | --- | --- | --- | --- | --- | --- | --- |
| COc1ccc2c3c1O[C@H]1C(=O)CC[C@H]4[C@@H](C2)N(C)CC[C@]314 [HYDROCODONE] | > 30 | > 10 | > 10 | 9.5 | > 30 | > 30 | > 30 | > 10 | > 10 | > 30 | > 30 | > 30 | > 30 |  |  |
| CN1C(=O)CN=C(c2ccccc2F)c2cc([N+](=O)[O-])ccc21 [FLUNITRAZEPAM] |  | > 10 | > 10 | > 30 | > 30 | > 30 | > 30 | > 10 | > 10 |  |  | > 30 | 18.6 | > 10 |  |
| COc1ccc(C(Cl)=C(c2ccc(OC)cc2)c2ccc(OC)cc2)cc1 [CHLOROTRIANISENE] | > 30 | > 30 | > 10 | > 30 | > 30 |  | 0.817 | > 30 | > 30 | > 30 | > 30 | > 30 | > 30 | > 10 | > 30 |
| CCN(CC)CCCN(c1ccccc1)C1Cc2ccccc2C1 [APRINDINE] | 2.89 | > 30 | > 10 | > 30 | > 30 |  | > 30 | 18 | > 30 | > 30 | > 30 | > 30 | > 30 | > 10 | > 30 |
| CCOC(=O)C1=C(C)NC(C)=C(C(=O)OC)C1c1cccc(Cl)c1Cl (stereo unspecified) [FELODIPINE] |  | > 10 | > 10 | 3.2 | > 30 | > 30 | > 30 | > 10 | > 10 |  | > 30 | > 30 | > 30 | 13.4 |  |
| Cc1ccc(S(=O)(=O)NC(=O)N[C@H]2[C@H]3CC[C@@](C)([C@H]2O)C3(C)C)cc1 [GLIBORNURIDE] | > 30 | > 30 | > 30 | > 30 | > 30 |  | > 30 | > 30 | > 30 | > 30 | > 30 | > 30 | > 30 |  | > 30 |
| CN1CCC(=C2c3ccccc3CC(=O)c3sccc32)CC1 [KETOTIFEN] |  | > 10 | > 10 | > 30 | > 10 |  | > 10 |  | 0.09 | > 30 |  | > 10 | > 10 | > 10 | > 30 |
| O=C(O[C@H]1C[N+]2(CCCOc3ccccc3)CCC1CC2)C(O)(c1cccs1)c1cccs1 [ACLIDINIUM BROMIDE] |  |  |  | > 30 | > 30 | > 30 | > 30 | > 10 |  |  | > 30 | > 30 | > 30 | > 10 |  |
| NS(=O)(=O)c1ccc(N2CCCCS2(=O)=O)cc1 | > 30 | > 30 | > 30 | > 30 | > 30 |  | > 30 | > 30 | > 30 | > 30 | > 30 | > 30 | > 30 |  | > 30 |
| CCCCC[C@H](O)CC[C@@H]1[C@H]2Cc3cccc(OCC(=O)O)c3C[C@H]2C[C@H]1O [TREPROSTINIL] | > 30 | > 30 | > 30 | > 30 | > 30 |  | > 30 | > 30 | > 30 | > 30 | > 30 | > 30 | > 30 |  | > 30 |
| CS(=O)(=O)NC(=O)CCC/C=C\C[C@H]1C(=O)C[C@@H](O)[C@@H]1/C=C/[C@@H](O)COc1ccccc1 [SULPROSTONE] | > 30 | > 30 | > 30 | > 30 | > 30 |  | > 30 | > 30 | > 30 | > 30 | > 30 | > 30 | > 30 |  | > 30 |
| CC(NC(C)(C)C)C(=O)c1cccc(Cl)c1 (stereo unspecified) [BUPROPION] |  | > 10 | > 10 |  | > 30 | > 30 |  | > 10 | > 10 | > 30 | > 30 | > 30 | > 30 | > 10 |  |
| CCCCCCCC(=O)CC[C@@H]1[C@@H](C/C=C\CCCC(=O)O)[C@@H](O)C[C@H]1O [UNOPROSTONE] | > 30 | > 30 | > 30 | > 30 | > 30 |  | > 30 | > 30 | > 30 | > 30 | > 30 | > 30 | > 30 |  | > 30 |
| CCN(CC)CC(=O)Nc1c(C)cccc1C [LIDOCAINE] |  |  |  | > 10 | > 30 | > 30 |  |  |  |  | > 30 | > 30 | 23 |  |  |
| CC1=C(CC(=O)O)c2cc(F)ccc2/C1=C\c1ccc([S+](C)[O-])cc1 (stereo unspecified) |  | > 10 | > 10 | > 30 | > 30 | > 30 |  | > 10 | > 10 |  | > 30 | > 30 | > 30 |  |  |
